Test results reported in paper PMC9598469, “Analysis of Antioxidant Constituents from Ilex rotunda and Evaluation of Their Blood–Brain Barrier Permeability” (Antioxidants, 2022).
Read-outs that look alike come from different tables or passages of the source.

Assays:
[1] = DPPH method on ELISA (96-well microplate) for isolated compounds; assay type: biochemical; conditions: compounds 2.5 to 40 μM, 30 min, 517 nm; read-out: EC50 Values (μM), DPPH radical
Method: The radical scavenging effect of 2,2-diphenyl-1-picrylhydrazyl (DPPH; Thermo Fisher Scientific, Ward Hill, MA, USA) was measured using our previous method. Briefly, 0.1 mL of each sample solution (dissolved in EtOH) was mixed with 0.1 mL of 0.2 mM DPPH and allowed to stand at RT for 30 min under shade. The absorbance at 517 nm was measured using a microplate spectrophotometer (Epoch, Biotek Instruments, Inc., Winooski, VT, USA). Ascorbic acid (100 μg/mL) (Sigma–Aldrich, Co., St. Louis, MO, USA) was used as a positive control. The percentage of DPPH reduction between the treated sample and negative control well was calculated with the following formula: %EC = (A control − A sample) * 100/(A control), where A sample was the absorbance of the sample and A control was the absorbance of untreated sample. Results are indicated as EC50, which correspond to the sample concentration (μg/mL) required to inhibition by 50% of the initial DPPH radical scavenging activity under the given experimental conditions.
(§1) An amount of 100 μL of the I. rotunda extract (1.3 mg/mL) dissolved in methanol and 100 μL of the DPPH solution (1.2 mg/mL in methanol) were mixed and incubated for 30 min at 37 °C, protected from light. After that, the mixture was filtered through a 0.22 μm filter for HPLC analysis. The control sample was prepared by mixing 100 μL methanol with 100 μL of the extract. Both mixtures were analyzed using the same established analytical methods. The outflow was monitored at 254 and 326 nm wavelength. […] The ELISA assay was performed by following procedure. A 100 μL of DPPH solution (0.2 mM) was added to 100 μL of the sample on a 96-well plate, mixed for 5 s, and reacted for 30 min under shade. The absorbance was measured at 517 nm using a microplate spectrophotometer (Epoch, Biotek Instruments, Inc., Winooski, VT, USA). […] Ascorbic acid (100 μg/mL) (Sigma–Aldrich, Co., St. Louis, MO, USA) was used as the positive control.

[2] = Parallel artificial membrane permeability assay for the blood–brain barrier (PAMPA-BBB); assay type: in vitro ADME; conditions: for Papp at 4 h, 1 mM: single compounds at concentration of 10 mM (stock), read-out: BBB Permeability log Pe (converted); for Cross BBB Potential: single compounds at 10 mM, classification based on Könczöl et al.
Method: The PAMPA-BBB experiment was carried out according to the study by Könczöl et al.. A slightly modified version of the PAMPA-BBB was used to assess effective permeability (Pe, cm/s) of compounds of I. rotunda. Briefly, 20 μL of stock solution of I. rotunda extract (10 mg/mL in MeOH) or test compound (10 mM in MeOH) was mixed with 180 μL of phosphate buffered saline (PBS, pH 7.4, 10 mM) to obtain the starting donor solution. Subsequently, the filter membrane of the donor (top) plate (96-well polycarbonate-based filter plate, Multiscreen-IP, MAIPTR10, pore size 0.45 μm, Milipore) was coated with 5 μL of porcine polar brain lipid extract (PBLE) solution (16.0 mg PBLE + 8.0 mg cholesterol dissolved in 600.0 μL n-dodecane). Then, 150.0 μL of the filtrate was placed on the membrane. The bottom (acceptor) plate (96-well microtiter plate, Multiscreen®, MATRNPS50, Milipore) was filled with 300.0 μL buffer solution (PBS, pH 7.4, 10 mM). The donor plate was carefully located on the acceptor plate to form a “sandwich”. It was incubated at 37 °C for 4 h without direct right exposure. After incubation, PAMPA plates were separated. Concentrations of identified compounds of I. rotunda in the starting donor solution and in acceptor and donor wells were determined in triplicate based on chromatographic peak areas derived from the same established analytical methods. […] Pe=−ln1−CA(t)/Cequilibrium /A×1/VD1/VA×t where Pe is permeability in cm s^−1. A = effective filter area = f × 0.3 cm^2; VD = donor well volume = 150 μL; VA = acceptor well volume = 300 μL; t = incubation time (s) = 14,400; CA(t) = compound concentration in the acceptor well at time t; and CD(t) = compound concentration in the donor well at time t. Cequilibrium is calculated as follows: Cequilibrium=CD(t)×VD+CA(t)×VA/VD+VA

[3] = HPLC-DPPH screening: peak area reduction in I. rotunda twig extract; assay type: biochemical; conditions: between DPPH treated and untreated samples in the I. rotunda extract, untreated = 100%
Method: as §1

[4] = parameters: method as in PMID 23565574; conditions: cited from earlier work
[5] = I. rotunda extract test, t = 14,400 s

| Compound | EC50 [1] | Cross BBB Potential [2] | Reduction of the Peak Area (%) [3] | further results |
| --- | --- | --- | --- | --- |
| O=C1O[C@H]([C@@H](O)CO)C(O)=C1O [Ascorbic acid, reference compound] | 22.6 ± 0.77 µM | – | – | – |
| O=c1ccc2ccccc2o1 [coumarin, reference compound] | – | ++ (log Pe > −5.0) | – | Papp at 4 h, 1 mM ([2]; PAMPA, pH 7.4, 37 °C, 4 h): 28.8 ×10⁻⁶ cm/s |
| O=C(/C=C/c1ccc(O)c(O)c1)O[C@@H]1C[C@](O)(C(=O)O)C[C@@H](OC(=O)/C=C/c2ccc(O)c(O)c2)[C@H]1O [Compound 6, 3,5-Dicaffeoylquinic acid] | 10.88 ± 0.04 µM | - (not detected in acceptor or log Pe < −6.0) | 58.88% | Reduction of the Peak Area (%) ([3]; listed as 3,5-dicaffeoylquinic acid (6)): 58.88 ± 0.44% |
| O=C(O)/C=C/c1ccc(O)c(O)c1 [caffeic acid, reference compound] | – | - (not detected in acceptor or log Pe < −6.0) | – | Papp at 4 h, 1 mM ([2]; PAMPA, pH 7.4, 37 °C, 4 h): 0.000832 ×10⁻⁶ cm/s |
| O=C(/C=C/c1ccc(O)c(O)c1)O[C@@H]1C[C@](O)(C(=O)O)C[C@@H](OC(=O)/C=C/c2ccc(O)c(O)c2)[C@H]1OC(=O)/C=C/c1ccc(O)c(O)c1 [Compound 8, 3,4,5-Tricaffeoylquinic acid] | 10.9 ± 0.14 µM | - (not detected in acceptor or log Pe < −6.0) | 67.25% | Reduction of the Peak Area (%) ([3]; listed as 3,4,5-tricaffeoylquinic acid (8)): 67.25 ± 1.00% |
| O=C(/C=C/c1ccc(O)c(O)c1)O[C@@H]1[C@H](O)C[C@@](O)(C(=O)O)C[C@H]1OC(=O)/C=C/c1ccc(O)c(O)c1 [Compound 7, 4,5-Dicaffeoylquinic acid] | 13.8 ± 0.24 µM | + (log Pe > −6.0) | 83.67% | Reduction of the Peak Area (%) ([3]; listed as 4,5-dicaffeoylquinic acid (7)): 83.67 ± 0.19%; Concentration of acceptor solution CA(t) [2, 5]: 6.62 µg/mL; Concentration of donor solution CD(t) [2, 5]: 287.86 µg/mL; BBB permeability (in words) ([2]; PAMPA-BBB, extract and 10 mM tests): moderate BBB permeability; Papp at 4 h, 1 mg/mL extract ([2]; PAMPA, compound within I. rotunda extract (10 mg/mL stock), pH 7.4, 37 °C, 4 h, read-out: BBB permeability log Pe (converted)): 1.58 ×10⁻⁶ cm/s; Papp at 4 h, 1 mM ([2]; PAMPA, pH 7.4, 37 °C, 4 h): 1.41 ×10⁻⁶ cm/s |
| COc1cc(/C=C/CO)cc(OC)c1O[C@@H]1O[C@H](CO)[C@@H](O)[C@H](O)[C@H]1O [Compound 1, Syringin] | – | - (not detected in acceptor or log Pe < −6.0) | 6.98 ± 0.44% | – |
| O=C(/C=C/c1ccc(O)c(O)c1)O[C@@H]1C[C@](O)(C(=O)O)C[C@@H](O)[C@H]1O [Compound 2, Chlorogenic acid] | – | - (not detected in acceptor or log Pe < −6.0) | – | BBB permeability (in words) [4]: poor permeability |
| O=C(C=Cc1ccc(O)c(O)c1)OC1CC(O)(C(=O)O)CC(O)C1OC(=O)C=Cc1ccc(O)c(O)c1 (stereo not drawn) [Compound 5, 3,4-Dicaffeoylquinic acid] | – | - (not detected in acceptor or log Pe < −6.0) | 45.24 ± 0.67% | – |
| C[C@@H]1O[C@@H](OC[C@H]2O[C@@H](Oc3c(-c4ccc(O)c(O)c4)oc4cc(O)cc(O)c4c3=O)[C@H](O)[C@@H](O)[C@@H]2O)[C@H](O)[C@H](O)[C@H]1O [Compound 3, Rutin] | – | - (not detected in acceptor or log Pe < −6.0) | 21.45 ± 0.90% | BBB permeability (in words) [4]: poor permeability |
| CC(=CCOC1OC(CO)C(O)C(O)C1O)COC(=O)C=Cc1ccc(O)c(O)c1 (stereo not drawn) [Compound 4, Rotundarpenoside B] | – | - (not detected in acceptor or log Pe < −6.0) | 18.99 ± 0.90% | – |
